Positions of bridges follow the written chain, without caps; N, C: chain ends. Residues, ends and D or L forms follow the SMILES beside them. Chains are numbered I, II in the order given. *: point of attachment. Mob = COc1ccc(C*)cc1; Acm = CC(=O)NC*

The record followed here is EP0687685A1, “PHYSIOLOGICALLY ACTIVE PEPTIDE” (TEIJIN LIMITED, priority 1993, dated 1994).

The target in test [1] is T1, human type II PLA₂ (Homo sapiens, UniProt P14555).
T1 construct: made in house; host or cells: Sf9 insect cells, baculovirus (AcNPV), vector pAcTJI1; purified from culture supernatant
T1 sequence (P14555 21-144): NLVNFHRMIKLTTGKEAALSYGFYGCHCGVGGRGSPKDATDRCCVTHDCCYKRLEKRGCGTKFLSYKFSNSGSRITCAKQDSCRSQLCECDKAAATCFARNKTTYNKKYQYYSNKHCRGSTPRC
The experiment in a line: Enzyme inhibition of human type II PLA₂ in the presence of heparin, radiolabeled synthetic phospholipid (method of Dole). The format is biochemical. As to conditions: PLA₂ enzyme 200 ng/ml; for inhibition at 5 µg/mL / remaining activity at 5 µg/mL: peptide 5 µg/ml; for inhibition at 10 µg/mL / remaining activity at 10 µg/mL: peptide 10 µg/ml; for inhibition at 50 µg/mL / remaining activity at 50 µg/mL: peptide 50 µg/ml; for inhibition at 100 µg/mL / remaining activity at 100 µg/mL: peptide 100 µg/ml.

The target of test [2] is T1, human type II PLA₂. The test can be described thus: Enzyme inhibition of human type II PLA₂ in the presence of heparin, radioactive phospholipid of E. coli origin. It counts as biochemical. The note with it: heparin 10 µg/ml, PLA₂ enzyme 10 ng/ml.
[3] abbreviates: heparin 50 µg/ml, read-out: PLA₂enzyme activity (%).
Setting [4] is: heparin 10 µg/ml, read-out: PLA₂enzyme activity (%).

As for `CC(=O)NCSC[C@H](NC(=O)CNC(=O)[C@H](CCCNC(=N)N)NC(=O)[C@@H](N)CCCCN)C(=O)NCC(=O)N[C@H](C(=O)N[C@@H](CCCCN)C(=O)N[C@@H](Cc1ccccc1)C(=O)N[C@@H](CC(C)C)C(=O)N[C@@H](CO)C(=O)N[C@@H](Cc1ccc(O)cc1)C(=O)N[C@@H](CCCCN)C(=O)N[C@@H](Cc1ccccc1)C(=O)N[C@@H](CO)C(=O)N[C@@H](CSSC[C@H](NC(=O)[C@H](CO)NC(=O)[C@H](Cc1ccccc1)NC(=O)[C@H](CCCCN)NC(=O)[C@H](Cc1ccc(O)cc1)NC(=O)[C@H](CO)NC(=O)[C@H](CC(C)C)NC(=O)[C@H](Cc1ccccc1)NC(=O)[C@H](CCCCN)NC(=O)[C@@H](NC(=O)CNC(=O)[C@H](CSCNC(C)=O)NC(=O)CNC(=O)[C@H](CCCNC(=N)N)NC(=O)[C@@H](N)CCCCN)[C@@H](C)O)C(=O)O)C(=O)O)[C@@H](C)O` [Peptide (11)] (I: H-KRGC(Acm)GTKFLSYKFSC-OH / II: H-KRGC(Acm)GTKFLSYKFSC-OH; disulfide I:15-II:15), on human type II PLA₂ [1] (heparin 50 µg/ml), the inhibition at 5 µg/mL came out at 43%, the inhibition at 10 µg/mL amounted to 63%, the inhibition at 50 µg/mL was 78% and the inhibition at 100 µg/mL is 82%. Besides, on human type II PLA₂ [1] (setting [3]), the remaining activity at 5 µg/mL turned out to be 57%, the remaining activity at 10 µg/mL stood at 37%, the remaining activity at 50 µg/mL was determined as 22% and the remaining activity at 100 µg/mL was 18%.

On to `CC(=O)NCSC[C@H](NC(=O)[C@H](CO)NC(=O)[C@H](Cc1ccccc1)NC(=O)[C@H](CCCCN)NC(=O)[C@H](Cc1ccc(O)cc1)NC(=O)[C@H](CO)NC(=O)[C@H](CC(C)C)NC(=O)[C@H](Cc1ccccc1)NC(=O)[C@H](CCCCN)NC(=O)[C@@H](NC(=O)CNC(=O)[C@H](CSSC[C@H](NC(=O)CNC(=O)[C@H](CCCNC(=N)N)NC(=O)[C@@H](N)CCCCN)C(=O)NCC(=O)N[C@H](C(=O)N[C@@H](CCCCN)C(=O)N[C@@H](Cc1ccccc1)C(=O)N[C@@H](CC(C)C)C(=O)N[C@@H](CO)C(=O)N[C@@H](Cc1ccc(O)cc1)C(=O)N[C@@H](CCCCN)C(=O)N[C@@H](Cc1ccccc1)C(=O)N[C@@H](CO)C(=O)N[C@@H](CSCNC(C)=O)C(=O)O)[C@@H](C)O)NC(=O)CNC(=O)[C@H](CCCNC(=N)N)NC(=O)[C@@H](N)CCCCN)[C@@H](C)O)C(=O)O` [Peptide (13)] (I: H-KRGCGTKFLSYKFSC(Acm)-OH / II: H-KRGCGTKFLSYKFSC(Acm)-OH; disulfide I:4-II:4), for which, on human type II PLA₂ [1] (heparin 50 µg/ml), the inhibition at 5 µg/mL worked out at 42%, the inhibition at 10 µg/mL was 62%, the inhibition at 50 µg/mL came to 81% and the inhibition at 100 µg/mL stood at 86%. On human type II PLA₂ [1] (setting [3]), the remaining activity at 5 µg/mL was 58%, the remaining activity at 10 µg/mL was determined as 38%, the remaining activity at 50 µg/mL stood at 19% and the remaining activity at 100 µg/mL is 14%.

Regarding `COc1ccc(CSC[C@H](NC(=O)CNC(=O)[C@H](CCCNC(=N)N)NC(=O)[C@@H](N)CCCCN)C(=O)NCC(=O)N[C@H](C(=O)N[C@@H](CCCCN)C(=O)N[C@@H](Cc2ccccc2)C(=O)N[C@@H](CC(C)C)C(=O)N[C@@H](CO)C(=O)N[C@@H](Cc2ccc(O)cc2)C(=O)N[C@@H](CCCCN)C(=O)N[C@@H](Cc2ccccc2)C(=O)N[C@@H](CO)C(=O)N[C@@H](CSSC[C@H](NC(=O)[C@H](CO)NC(=O)[C@H](Cc2ccccc2)NC(=O)[C@H](CCCCN)NC(=O)[C@H](Cc2ccc(O)cc2)NC(=O)[C@H](CO)NC(=O)[C@H](CC(C)C)NC(=O)[C@H](Cc2ccccc2)NC(=O)[C@H](CCCCN)NC(=O)[C@@H](NC(=O)CNC(=O)[C@H](CSCc2ccc(OC)cc2)NC(=O)CNC(=O)[C@H](CCCNC(=N)N)NC(=O)[C@@H](N)CCCCN)[C@@H](C)O)C(=O)O)C(=O)O)[C@@H](C)O)cc1` [Peptide (2)] (I: H-KRGC(Mob)GTKFLSYKFSC-OH / II: H-KRGC(Mob)GTKFLSYKFSC-OH; disulfide I:15-II:15), on human type II PLA₂ [1] (heparin 50 µg/ml), the inhibition at 5 µg/mL worked out at 25%, the inhibition at 10 µg/mL amounted to 52%, the inhibition at 50 µg/mL was determined as 81% and the inhibition at 100 µg/mL was determined as 89%. In addition, at human type II PLA₂ [1] (setting [3]), the remaining activity at 5 µg/mL was determined as 75%, the remaining activity at 10 µg/mL was 48%, the remaining activity at 50 µg/mL was determined as 19% and the remaining activity at 100 µg/mL was found to be 11%.

With `CC(C)C[C@@H]1NC(=O)[C@H](Cc2ccccc2)NC(=O)[C@H](CCCCN)NC(=O)[C@H]([C@@H](C)O)NC(=O)CNC(=O)[C@@H](NC(=O)CNC(=O)[C@H](CCCNC(=N)N)NC(=O)[C@@H](N)CCCCN)CSSC[C@@H](C(=O)O)NC(=O)[C@H](CO)NC(=O)[C@H](Cc2ccccc2)NC(=O)[C@H](CCCCN)NC(=O)[C@H](Cc2ccc(O)cc2)NC(=O)[C@H](CO)NC(=O)[C@H](CC(C)C)NC(=O)[C@H](Cc2ccccc2)NC(=O)[C@H](CCCCN)NC(=O)[C@H]([C@@H](C)O)NC(=O)CNC(=O)[C@@H](NC(=O)CNC(=O)[C@H](CCCNC(=N)N)NC(=O)[C@@H](N)CCCCN)CSSC[C@@H](C(=O)O)NC(=O)[C@H](CO)NC(=O)[C@H](Cc2ccccc2)NC(=O)[C@H](CCCCN)NC(=O)[C@H](Cc2ccc(O)cc2)NC(=O)[C@H](CO)NC1=O` [Peptide (17)] (I: H-KRGCGTKFLSYKFSC-OH / II: H-KRGCGTKFLSYKFSC-OH; disulfide I:4-II:15, I:15-II:4), the inhibition at 1 µg/mL at human type II PLA₂ [1] (peptide 1 µg/ml, heparin 10 µg/ml) worked out at 69%. Besides, the remaining activity at 1 µg/mL at human type II PLA₂ [1] (peptide 1 µg/ml, heparin 10 µg/ml, read-out: PLA₂enzyme activity (%)) amounted to 31%. For the same compound, on human type II PLA₂ [1] (heparin 10 µg/ml), the inhibition at 5 µg/mL was found to be 91% and the inhibition at 10 µg/mL turned out to be 94%. Also, on human type II PLA₂ [1] (setting [4]), the remaining activity at 5 µg/mL stood at 9% and the remaining activity at 10 µg/mL stood at 6%.

In the case of `CC(C)C[C@@H]1NC(=O)[C@H](Cc2ccccc2)NC(=O)[C@H](CCCCN)NC(=O)[C@H]([C@@H](C)O)NC(=O)CNC(=O)[C@@H](NC(=O)CNC(=O)[C@H](CCCNC(=N)N)NC(=O)[C@@H](N)CCCCN)CSSC[C@H](NC(=O)CNC(=O)[C@H](CCCNC(=N)N)NC(=O)[C@@H](N)CCCCN)C(=O)NCC(=O)N[C@@H]([C@@H](C)O)C(=O)N[C@@H](CCCCN)C(=O)N[C@@H](Cc2ccccc2)C(=O)N[C@@H](CC(C)C)C(=O)N[C@@H](CO)C(=O)N[C@@H](Cc2ccc(O)cc2)C(=O)N[C@@H](CCCCN)C(=O)N[C@@H](Cc2ccccc2)C(=O)N[C@@H](CO)C(=O)N[C@H](C(=O)O)CSSC[C@@H](C(=O)O)NC(=O)[C@H](CO)NC(=O)[C@H](Cc2ccccc2)NC(=O)[C@H](CCCCN)NC(=O)[C@H](Cc2ccc(O)cc2)NC(=O)[C@H](CO)NC1=O` [Peptide (16)] (I: H-KRGCGTKFLSYKFSC-OH / II: H-KRGCGTKFLSYKFSC-OH; disulfide I:4-II:4, I:15-II:15), at human type II PLA₂ [1] (heparin 50 µg/ml), the inhibition at 5 µg/mL worked out at 59%, the inhibition at 10 µg/mL was determined as 72%, the inhibition at 50 µg/mL turned out to be 82% and the inhibition at 100 µg/mL was found to be 90%. Besides, at human type II PLA₂ [1] (setting [3]), the remaining activity at 5 µg/mL came to 41%, the remaining activity at 10 µg/mL was determined as 28%, the remaining activity at 50 µg/mL turned out to be 18% and the remaining activity at 100 µg/mL came out at 10%. Further, at human type II PLA₂ [2] (peptide 1 µg/ml), the inhibition at 1 µg/mL was determined as 88% and the remaining activity at 1 µg/mL was 12%. At human type II PLA₂ [2] (peptide 5 µg/ml), the inhibition at 5 µg/mL came to 97% and the remaining activity at 5 µg/mL was determined as 3%. Further, on human type II PLA₂ [2] (peptide 10 µg/ml), the inhibition at 10 µg/mL was found to be 98% and the remaining activity at 10 µg/mL was 2%.

As usually defined, the inhibition is the change of the read-out against control, counted positive when it falls.
